Some test systems named below: HCT-116 colon; TK-10 renal; SK-OV-3 ovarian; MDA-MB-435; HOP-62 NSCLC; SF-539 CNS; HS 578T breast; MALME-3M melanoma; SNB-19 CNS; 786-0 renal.
Common to all, as to experiment: growth of human tumour cells (NCI), 48 h

Molecules are shown by their SMILES. Several values for one entry are separate records, joined by “and”; a condition that tells them apart may be missing. Identical values can stand only once.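 All cell lines were grown in 96-well plates and treated with compound for 48 hours. Here, GI50 denotes the concentration required for 50% inhibition of growth. TGI: total growth inhibition.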

For the compound `Cc1c(CN2CCC(Nc3ncnc4sc(CC(F)(F)F)cc34)CC2)ccc2c1cc(C#N)n2Cc1cn[nH]c1`, the GI50 with HCT-116 colon was 1.12 µM and 1.99 µM; in the experiment with TK-10 renal it was 11.6 µM and > 35.2 µM; in the experiment on SK-OV-3 ovarian, 10 µM and > 24.1 µM; with MDA-MB-435 it was 1.99 µM and 3.78 µM; in the experiment with HOP-62 NSCLC it was 3.38 µM and 5.46 µM; in the experiment with SF-539 CNS, 7.37 µM and 15 µM. The GI50 is 6.23 µM and 10.1 µM in the experiment on HS 578T breast; 1.31 µM and 2.77 µM with MALME-3M melanoma; 6.75 µM and 6.03 µM in the experiment with SNB-19 CNS; 4.92 µM and 4.44 µM in the experiment with 786-0 renal. Moreover, the TGI is 2.4 µM with HCT-116 colon; 26.2 µM and > 52.3 µM with TK-10 renal; above 47.4 µM in the experiment with SK-OV-3 ovarian; 6.15 µM with MDA-MB-435; 22 µM and > 44.6 µM in the experiment on HOP-62 NSCLC; above 51.4 µM in the experiment on SF-539 CNS. For the same compound, the TGI in the experiment on HS 578T breast was above 68.3 µM; with MALME-3M melanoma it was 2.95 µM and 15.3 µM; in the experiment on SNB-19 CNS, 28.9 µM; in the experiment on 786-0 renal, 21.9 µM.
For `Cc1nc(NC(=S)Nc2ccc(F)cc2)sc1C(=O)NNC(=S)Nc1ccc(F)cc1`, the GI50 in the experiment on HCT-116 colon was 7.93 µM; with TK-10 renal, 6.93 µM; in the experiment on SK-OV-3 ovarian, 15.7 µM; with MDA-MB-435, 7.34 µM; in the experiment with HOP-62 NSCLC, 26.5 µM; in the experiment with SF-539 CNS, 13 µM. Also, the GI50 in the experiment on HS 578T breast is 11.4 µM; in the experiment on MALME-3M melanoma, 13.1 µM; with SNB-19 CNS it was 8.39 µM; with 786-0 renal, 21.9 µM. The TGI is above 100 µM with HCT-116 colon; 48.1 µM in the experiment with TK-10 renal; 61.6 µM in the experiment on SK-OV-3 ovarian; 55.2 µM in the experiment on MDA-MB-435; 82.5 µM in the experiment with HOP-62 NSCLC; 26.2 µM in the experiment with SF-539 CNS. Besides, the TGI in the experiment on HS 578T breast was 38 µM; with MALME-3M melanoma, 35.5 µM; with SNB-19 CNS it was 66.5 µM; in the experiment with 786-0 renal, 89.1 µM.
Consider `c1ccc2[nH]c(-c3ccc(OCCCCCOc4ccc(-c5nc6ccccc6[nH]5)cc4)cc3)nc2c1`, for which the GI50 was 1.25 µM in the experiment with HCT-116 colon; 2.05 µM with TK-10 renal; 6.39 µM in the experiment with SK-OV-3 ovarian; 1.63 µM in the experiment with MDA-MB-435; 2.23 µM with HOP-62 NSCLC; 0.835 µM with SF-539 CNS. Besides, the GI50 in the experiment on HS 578T breast was 1.3 µM; in the experiment with MALME-3M melanoma, 2.12 µM; with SNB-19 CNS it was 5.97 µM; in the experiment on 786-0 renal, 2.28 µM. Further, the TGI in the experiment on HCT-116 colon worked out at 3.87 µM; in the experiment with TK-10 renal, 3.77 µM; in the experiment with SK-OV-3 ovarian, 17.5 µM; in the experiment on MDA-MB-435, 3.94 µM; in the experiment with HOP-62 NSCLC it was 5.15 µM; with SF-539 CNS it was 2.3 µM. Further, the TGI with HS 578T breast was 4.41 µM; in the experiment with MALME-3M melanoma, 3.93 µM; in the experiment on SNB-19 CNS, above 28.4 µM; in the experiment on 786-0 renal it was 5.92 µM.
For the compound `CN(C)CCNC(=O)c1cc([N+](=O)[O-])ccn1`, the TGI is 61.4 µM with HCT-116 colon; above 100 µM in the experiment on TK-10 renal; above 100 µM with SK-OV-3 ovarian; 35.8 µM with MDA-MB-435; above 100 µM in the experiment on HOP-62 NSCLC; 59.4 µM with SF-539 CNS. Moreover, the TGI was above 100 µM in the experiment with HS 578T breast, 28 µM in the experiment on MALME-3M melanoma, above 100 µM with SNB-19 CNS and above 100 µM in the experiment with 786-0 renal.
For the compound `Fc1ccc(-c2nnc3sc(-c4cccc(Cl)c4)nn23)cc1Cl`, the GI50 in the experiment on HCT-116 colon, in the experiment on TK-10 renal, with SK-OV-3 ovarian, with MDA-MB-435, with HOP-62 NSCLC and with SF-539 CNS was above 100 µM in each case. The GI50 with HS 578T breast, with MALME-3M melanoma, in the experiment on SNB-19 CNS and in the experiment on 786-0 renal was above 100 µM each time. For the same compound, the TGI with HCT-116 colon, in the experiment on TK-10 renal, with SK-OV-3 ovarian, with MDA-MB-435, in the experiment with HOP-62 NSCLC and with SF-539 CNS was above 100 µM in each case. Besides, the TGI in the experiment on HS 578T breast, with MALME-3M melanoma, with SNB-19 CNS and with 786-0 renal was above 100 µM throughout.
Regarding `CC1(C)N=C(N)N=C(N)N1c1cccc(CCCCc2ccc(S(=O)(=O)F)cc2Cl)c1`, the GI50 in the experiment on HCT-116 colon was 1.06 µM; with TK-10 renal it was 8.66 µM; with SK-OV-3 ovarian it was 24.6 µM; with MDA-MB-435, 0.611 µM; in the experiment with HOP-62 NSCLC it was 5.72 µM; in the experiment with SF-539 CNS, 2.06 µM. The GI50 in the experiment with HS 578T breast is 43.2 µM; in the experiment with MALME-3M melanoma it was 1.12 µM; in the experiment with SNB-19 CNS, 1.64 µM; in the experiment on 786-0 renal it was 3.28 µM. The TGI in the experiment on HCT-116 colon was above 37.7 µM; in the experiment on TK-10 renal, above 100 µM; in the experiment with SK-OV-3 ovarian, above 100 µM; with MDA-MB-435 it was 18.5 µM; in the experiment on HOP-62 NSCLC it was 20.7 µM; in the experiment on SF-539 CNS it was 20.1 µM. Moreover, the TGI is above 100 µM in the experiment on HS 578T breast, 28.2 µM with MALME-3M melanoma, 20.6 µM with SNB-19 CNS and 24.5 µM in the experiment on 786-0 renal.
Consider `Cc1nc(Nc2ccc(F)c(Cl)c2)sc1C(=O)O`, for which the GI50 is 1.51 µM with HCT-116 colon; 1.96 µM in the experiment on TK-10 renal; 1.83 µM in the experiment on SK-OV-3 ovarian; 2.13 µM in the experiment with MDA-MB-435; 1.42 µM in the experiment with HOP-62 NSCLC; 1.58 µM in the experiment with SF-539 CNS. In addition, the GI50 with HS 578T breast is 1.87 µM; in the experiment on MALME-3M melanoma it was 1.65 µM; in the experiment with SNB-19 CNS it was 1.93 µM; in the experiment on 786-0 renal, 1.74 µM. Further, the TGI worked out at 3.34 µM in the experiment on HCT-116 colon; 4.09 µM in the experiment with TK-10 renal; 4.33 µM in the experiment with SK-OV-3 ovarian; 5.25 µM in the experiment on MDA-MB-435; 2.93 µM in the experiment with HOP-62 NSCLC; 3.07 µM in the experiment on SF-539 CNS. Also, the TGI stood at 5.44 µM with HS 578T breast, 3.71 µM in the experiment with MALME-3M melanoma, 5.22 µM in the experiment with SNB-19 CNS and 3.98 µM in the experiment on 786-0 renal.
As for `CCN(CC)CCCC(C)Nc1cnc(C(=O)Nc2cc(F)cc3cccnc23)cn1` (stereo not given), the GI50 is 2.7 µM and 0.35 µM with HCT-116 colon; 10.4 µM and 1.54 µM in the experiment with TK-10 renal; 14 µM and 1.68 µM in the experiment with SK-OV-3 ovarian; 3.4 µM and 1.45 µM with MDA-MB-435; 10.8 µM and 1.89 µM in the experiment on HOP-62 NSCLC; 10.3 µM and 1.52 µM with SF-539 CNS. Besides, the GI50 is 3.97 µM and 2.15 µM with HS 578T breast; 1.77 µM and 0.983 µM in the experiment with MALME-3M melanoma; 10.5 µM and 1.73 µM in the experiment with SNB-19 CNS; 8.17 µM and 1.33 µM with 786-0 renal. The TGI was 10.1 µM and 1.23 µM in the experiment with HCT-116 colon; 22.4 µM and 3.12 µM in the experiment with TK-10 renal; 27.7 µM and 3.68 µM with SK-OV-3 ovarian; 12.8 µM and 3.43 µM in the experiment on MDA-MB-435; 25.3 µM and 3.62 µM with HOP-62 NSCLC; 22.2 µM and 2.89 µM in the experiment on SF-539 CNS. The TGI was 21.1 µM and 6.62 µM with HS 578T breast; 3.38 µM and 2.28 µM in the experiment with MALME-3M melanoma; 22.8 µM and 3.14 µM with SNB-19 CNS; 22 µM and 2.7 µM with 786-0 renal.

The record behind these values is PubChem BioAssay (NCI).
